IC50 data for 26 compounds are collected here from US11161844B2, “Cyclic substituted imidazo[4,5-c]quinoline derivatives” (Pfizer Inc., priority 2017, dated 2021).

Each structure is given as a SMILES string.

The target in assay [1] is LRRK2, WT (GST-tagged truncated LRRK2) (Homo sapiens (Human), UniProt Q5S007). The experiment in a line: LRRK2 kinase assay (Lantha Screen), wild type. The assay is classed as biochemical. Conditions: 100 nM LRRKtide, 1 mM ATP, 2 μg/mL enzyme; geometric mean of 2-4 determinations unless otherwise indicated. The method, then:
(§1) LRRK2 kinase activity was measured using Lantha Screen technology from Invitrogen. GST-tagged truncated LRRK2 from Invitrogen (Cat #PV4874) was incubated with a fluorescein-labeled peptide substrate based upon ezrin/radixin/moesin (ERM), also known as LRRKtide (Invitrogen cat #PR8976A), in the presence of a dose response of compound. Upon completion, the assay was stopped and detected with a terbium labeled anti-phospho-ERM antibody (Invitrogen, cat #PR8975A). The assay was carried out under the following protocol: The compound dose response was prepared by diluting compound to a top concentration of 0.3 mM in 100% DMSO and serial diluted by half-log in DMSO to give an 11 point curve, 100× final assay concentration. Using Echo acoustic dispensing, 60 nL of compound was transferred to a low volume Corning 384-well assay plate. 3 μL of a working solution of substrate (200 nM LRRKtide, 2 mM ATP) prepared in assay buffer (50 mM HEPES, pH 7.5, 3 mM MgCl2, with 2 mM DTT and 0.01% Brij35 added fresh) was added to the 60 nL compound assay plate. The kinase reaction was started with 3 μL of a working solution of LRRK2 enzyme at a concentration of 4 μg/mL. The final reaction concentrations were 100 nM LRRKtide, 1 mM ATP, 2 μg/mL LRRK2 enzyme and a compound dose response with a top dose of 3 μM. The reaction was allowed to progress at room temperature for 30 minutes and then stopped with the addition of 6 μL of detection buffer (20 mM Tris pH 7.6, 0.01% NP-40, 6 mM EDTA with 2 nM terbium labeled anti-phospho-ERM). After an incubation of 1 hour at room temperature, the plate was read on an Envision with an excitation wavelength of 340 nm and a reading emission at both 520 nm and 495 nm. The ratio of the 520 nm and 495 nm emission was used to analyze the data. Inhibition of mutant G2019S LRRK2 (Invitrogen cat #PV4881) was measured in the exact same method. All final concentrations of substrate ATP and enzyme were the same.

Assay [2] has as its target mutant G2019S LRRK2 (Homo sapiens (Human), UniProt Q5S007, G2019S). The experiment in a line: LRRK2 kinase assay (Lantha Screen), mutant G2019S. The format is biochemical. Conditions: 100 nM LRRKtide, 1 mM ATP, 2 μg/mL enzyme; single determination unless otherwise indicated. The method, then:
as §1

Chain of LRRK2, WT (GST-tagged truncated LRRK2) (Q5S007 970-2527): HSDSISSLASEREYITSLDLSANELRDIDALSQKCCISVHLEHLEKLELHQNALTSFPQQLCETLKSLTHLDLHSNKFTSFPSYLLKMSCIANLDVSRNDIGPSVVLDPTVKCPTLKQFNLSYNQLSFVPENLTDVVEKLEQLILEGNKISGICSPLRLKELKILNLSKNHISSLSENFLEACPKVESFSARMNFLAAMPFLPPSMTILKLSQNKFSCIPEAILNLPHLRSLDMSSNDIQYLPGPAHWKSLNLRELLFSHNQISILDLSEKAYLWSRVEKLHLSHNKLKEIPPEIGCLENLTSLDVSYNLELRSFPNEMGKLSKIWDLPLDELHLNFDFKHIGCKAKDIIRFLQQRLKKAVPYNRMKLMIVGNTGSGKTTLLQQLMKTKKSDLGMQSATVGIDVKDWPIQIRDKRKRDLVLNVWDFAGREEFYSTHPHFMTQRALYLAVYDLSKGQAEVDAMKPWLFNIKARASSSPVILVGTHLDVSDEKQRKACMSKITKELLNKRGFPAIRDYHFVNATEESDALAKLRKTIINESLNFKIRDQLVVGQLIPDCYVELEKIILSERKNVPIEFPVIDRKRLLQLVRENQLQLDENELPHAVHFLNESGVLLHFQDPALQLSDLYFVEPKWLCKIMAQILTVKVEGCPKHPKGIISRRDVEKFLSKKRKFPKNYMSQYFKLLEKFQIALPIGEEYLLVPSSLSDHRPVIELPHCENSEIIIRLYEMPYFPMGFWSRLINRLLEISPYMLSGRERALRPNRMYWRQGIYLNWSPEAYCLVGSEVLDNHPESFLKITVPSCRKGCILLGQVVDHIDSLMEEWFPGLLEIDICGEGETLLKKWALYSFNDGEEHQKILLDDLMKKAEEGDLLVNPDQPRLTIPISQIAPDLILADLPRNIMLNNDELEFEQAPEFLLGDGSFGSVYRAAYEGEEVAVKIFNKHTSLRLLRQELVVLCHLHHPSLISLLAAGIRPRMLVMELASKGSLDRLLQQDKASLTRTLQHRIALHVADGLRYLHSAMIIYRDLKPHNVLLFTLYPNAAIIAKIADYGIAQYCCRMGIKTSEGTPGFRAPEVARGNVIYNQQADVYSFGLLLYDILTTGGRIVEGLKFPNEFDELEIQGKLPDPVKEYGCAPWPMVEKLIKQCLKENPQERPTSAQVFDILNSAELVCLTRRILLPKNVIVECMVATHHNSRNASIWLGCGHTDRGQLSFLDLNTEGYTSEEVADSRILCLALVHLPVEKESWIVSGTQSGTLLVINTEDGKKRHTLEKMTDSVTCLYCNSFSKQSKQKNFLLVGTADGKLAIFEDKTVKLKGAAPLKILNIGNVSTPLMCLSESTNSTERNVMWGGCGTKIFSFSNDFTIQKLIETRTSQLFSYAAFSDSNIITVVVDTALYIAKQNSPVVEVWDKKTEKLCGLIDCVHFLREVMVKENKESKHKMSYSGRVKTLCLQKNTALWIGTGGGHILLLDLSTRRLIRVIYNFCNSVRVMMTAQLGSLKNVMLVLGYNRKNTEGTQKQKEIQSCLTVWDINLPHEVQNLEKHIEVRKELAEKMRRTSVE
Chain of mutant G2019S LRRK2 (Q5S007 970-2527 G2019S): as the sequence (Q5S007 970-2527) above, with G1050S counted along it

Usually IC50 stands for the concentration that gives 50% inhibition. Read a low IC50 as inhibition by little substance. As to `C[C@@H]1C[C@H](n2c(C3CCC(F)C3)nc3cnc4ccc(C#N)cc4c32)CCO1` (single isomer, unassigned) [Example 13], the half-inhibitory concentration (IC50) in assay [1] is 6.29 nM; in assay [2] it was 3.84 nM.
The like results for `N#CC[C@@H]1C[C@H](n2c(C3CC(F)(F)C3)nc3cnc4ccc(Cl)cc4c32)CCO1` (single isomer, unassigned) [Example 27, {cis-4-[8-chloro-2-(3,3-difluorocyclobutyl)-1H-imidazo[4,5-c]quinolin-1-yl]tetrahydro-2H-pyran-2-yl}acetonitrile] were, in that order, 12 nM and 12.2 nM.
The like results for `C[C@@H]1C[C@H](n2c3c(cnc4ccc(Cl)cc43)nc2[C@H]2CC[C@@H](F)CC2)CCO1` [Example 1, 8-chloro-2-(cis-4-fluorocyclohexyl)-1-[(2R,4R)-2-methyltetrahydro-2H-pyran-4-yl]-1H-imidazo[4,5-c]quinoline] were, in that order, 7.32 nM and 4.75 nM.
The matching figures for `C[C@@H]1C[C@H](n2c3c(cnc4ccc(Cl)cc43)nc2[C@H]2C[C@@H](F)C2)CCO1` [Example 2, 8-chloro-2-(cis-3-fluorocyclobutyl)-1-[(2R,4R)-2-methyltetrahydro-2H-pyran-4-yl]-1H-imidazo[4,5-c]quinoline]: 8.99 nM and 5.49 nM.
Consider `C[C@@H]1C[C@H](n2c(C3CC(C)(F)C3)nc3cnc4ccc(Cl)cc4c32)CCO1` (stereo partly drawn) [Example 3, 8-chloro-2-(cis-3-fluoro-3-methylcyclobutyl)-1-[(2R,4R)-2-methyltetrahydro-2H-pyran-4-yl]-1H-imidazo[4,5-c]quinoline], for which the values for the IC50 in assay [1] and in assay [2] were 6.81 nM and 5.44 nM, respectively.
On to `C[C@@H]1C[C@H](n2c([C@H]3CCOC3)nc3cnc4ccc(Cl)cc4c32)CCO1` [Example 4, 8-chloro-1-[(2R,4R)-2-methyltetrahydro-2H-pyran-4-yl]-2-[(3R)-tetrahydrofuran-3-yl]-1H-imidazo[4,5-c]quinoline], for which the figures for the IC50 in assay [1] and in assay [2] were 12.3 nM and 7.4 nM, respectively.
Consider `C[C@@H]1C[C@H](n2c(C3CC(C)(F)C3)nc3cnc4ccc(Cl)cc4c32)CCO1` (stereo partly drawn) [Example 5, 8-chloro-2-(3-fluoro-3-methylcyclobutyl)-1-[(2R,4R)-2-methyltetrahydro-2H-pyran-4-yl]-1H-imidazo[4,5-c]quinoline], for which the IC50 in assay [1] was 16.4 nM; in assay [2], 17.2 nM.
The like results for `CO[C@H]1C[C@@H](c2nc3cnc4ccc(Cl)cc4c3n2[C@@H]2CCO[C@H](C)C2)C1` [Example 6, 8-chloro-2-(cis-3-methoxycyclobutyl)-1-[(2R,4R)-2-methyltetrahydro-2H-pyran-4-yl]-1H-imidazo[4,5-c]quinoline] were, in that order, 19.1 nM and 11.9 nM.
For `C[C@@H]1C[C@H](n2c(C3CCOCC3)nc3cnc4ccc(Cl)cc4c32)CCO1` [Example 7, 8-chloro-1-[(2R,4R)-2-methyltetrahydro-2H-pyran-4-yl]-2-(tetrahydro-2H-pyran-4-yl)-1H-imidazo[4,5-c]quinoline], the values for the half-inhibitory concentration (IC50) in assay [1] and in assay [2] were 16.3 nM and 18.2 nM, respectively.
Consider `C[C@@H]1C[C@H](n2c(C3CCC(F)(F)CC3)nc3cnc4ccc(Cl)cc4c32)CCO1` [Example 8, 8-chloro-2-(4,4-difluorocyclohexyl)-1-[(2R,4R)-2-methyltetrahydro-2H-pyran-4-yl]-1H-imidazo[4,5-c]quinoline], for which the values for the half-maximal inhibitory concentration (IC50) in assay [1] and in assay [2] were 15.9 nM and 12.1 nM, respectively.
The matching figures for `C[C@@H]1C[C@H](n2c(C3CCCO3)nc3cnc4ccc(Cl)cc4c32)CCO1` (stereo partly drawn) [Example 9, 8-chloro-1-[(2R,4R)-2-methyltetrahydro-2H-pyran-4-yl]-2-(tetrahydrofuran-2-yl)-1H-imidazo[4,5-c]quinoline]: 18.5 nM and 11.3 nM.
The matching figures for `CC1CC(c2nc3cnc4ccc(Cl)cc4c3n2[C@@H]2CCO[C@H](C)C2)CO1` (stereo partly drawn) [Example 10, 8-chloro-2-(5-methyltetrahydrofuran-3-yl)-1-[(2R,4R)-2-methyltetrahydro-2H-pyran-4-yl]-1H-imidazo[4,5-c]quinoline]: 23.1 nM and 23.3 nM.
Compound `C[C@@H]1C[C@H](n2c([C@H]3CCOC3)nc3cnc4ccc(C(F)F)cc4c32)CCO1` [Example 21, 8-(difluoromethyl)-1-((2R,4R)-2-methyltetrahydro-2H-pyran-4-yl)-2-((R)-tetrahydrofuran-3-yl)-1H-imidazo[4,5-c]quinoline] had a half-inhibitory concentration (IC50) in assay [1] of 16.6 nM.
On the same count and under the same terms, then `C[C@@H]1C[C@H](n2c(C3CCC(F)C3)nc3cnc4ccc(F)cc4c32)CCO1` (stereo partly drawn) [Example 37, 8-fluoro-2-[trans-3-fluorocyclopentyl]-1-[(2R,4R)-2-methyltetrahydro-2H-pyran-4-yl]-1H-imidazo[4,5-c]quinoline], with 200 nM; and `C[C@@H]1C[C@H](n2c(C3CCC(F)C3)nc3cnc4ccc(F)cc4c32)CCO1` (stereo partly drawn) [Example 38, 8-fluoro-2-[trans-3-fluorocyclopentyl]-1-[(2R,4R)-2-methyltetrahydro-2H-pyran-4-yl]-1H-imidazo[4,5-c]quinoline], with 202 nM.
Regarding `N#Cc1ccc2ncc3nc([C@H]4C[C@H](F)C4)n(C4CCOCC4(F)F)c3c2c1` (stereo partly drawn) [Example 45, 1-(3,3-difluorotetrahydro-2H-pyran-4-yl)-2-(trans-3-fluorocyclobutyl)-1H-imidazo[4,5-c]quinoline-8-carbonitrile], it took 2140 nM to reach half-maximal inhibition in assay [1] (IC50).
In assay [1], `CO[C@H]1C[C@H](c2nc3cnc4ccc(C#N)cc4c3n2C2CCOCC2(F)F)C1` (stereo partly drawn) [Example 50, 1-(3,3-difluorotetrahydro-2H-pyran-4-yl)-2-(trans-3-methoxycyclobutyl)-1H-imidazo[4,5-c]quinoline-8-carbonitrile] yielded an IC50 greater than 3000 nM.
Same read-out and setting: the result for `CO[C@H]1C[C@H](c2nc3cnc4ccc(C#N)cc4c3n2C2CCOCC2(F)F)C1` (stereo partly drawn) [Example 51, 1-(3,3-difluorotetrahydro-2H-pyran-4-yl)-2-(trans-3-methoxycyclobutyl)-1H-imidazo[4,5-c]quinoline-8-carbonitrile] reads 272 nM.
Same read-out and setting: the result for `CC1(C)C[C@H](n2c([C@H]3CC[C@H](F)C3)nc3cnc4ccc(C#N)cc4c32)CCO1` [Example 53, 1-[(4R)-2,2-dimethyltetrahydro-2H-pyran-4-yl]-2-[(1S,3S)-3-fluorocyclopentyl]-1H-imidazo[4,5-c]quinoline-8-carbonitrile] reads 413 nM.
On the same count and under the same terms, the result for `CC1(C)C[C@H](n2c([C@@H]3CC[C@H](F)C3)nc3cnc4ccc(C#N)cc4c32)CCO1` [Example 54, 1-[(4R)-2,2-dimethyltetrahydro-2H-pyran-4-yl]-2-[(1R,3S)-3-fluorocyclopentyl]-1H-imidazo[4,5-c]quinoline-8-carbonitrile] reads greater than 3000 nM; that for `CC1(C)C[C@H](n2c([C@@H]3CC[C@@H](F)C3)nc3cnc4ccc(C#N)cc4c32)CCO1` [Example 55, 1-[(4R)-2,2-dimethyltetrahydro-2H-pyran-4-yl]-2-[(1R,3R)-3-fluorocyclopentyl]-1H-imidazo[4,5-c]quinoline-8-carbonitrile], 2520 nM.
Compound `CC1(C)C[C@H](n2c([C@H]3CC[C@@H](F)C3)nc3cnc4ccc(C#N)cc4c32)CCO1` [Example 56, 1-[(4R)-2,2-dimethyltetrahydro-2H-pyran-4-yl]-2-[(1S,3R)-3-fluorocyclopentyl]-1H-imidazo[4,5-c]quinoline-8-carbonitrile] returned an IC50 in assay [1] greater than 3000 nM.
In assay [1], `CN1CC(n2c(C3CCC(F)C3)nc3cnc4ccc(C#N)cc4c32)C(F)(F)C1` (centres unmarked) [Example 61, 1-(4,4-difluoro-1-methylpyrrolidin-3-yl)-2-(3-fluorocyclopentyl)-1H-imidazo[4,5-c]quinoline-8-carbonitrile] showed an IC50 of 464 nM.
The same measure, in the same setting: then `CN1CC(n2c(C3CCC(F)C3)nc3cnc4ccc(C#N)cc4c32)C(F)(F)C1` (centres unmarked) [Example 62, 1-(4,4-difluoro-1-methylpyrrolidin-3-yl)-2-(3-fluorocyclopentyl)-1H-imidazo[4,5-c]quinoline-8-carbonitrile], with greater than 3000 nM.
Still for that read-out and setting: then `CN1CC(n2c(C3CCC(F)C3)nc3cnc4ccc(C#N)cc4c32)C(F)(F)C1` (centres unmarked) [Example 63, 1-(4,4-difluoro-1-methylpyrrolidin-3-yl)-2-(3-fluorocyclopentyl)-1H-imidazo[4,5-c]quinoline-8-carbonitrile], with greater than 1840 nM; and `CN1CC(n2c(C3CCC(F)C3)nc3cnc4ccc(C#N)cc4c32)C(F)(F)C1` (centres unmarked) [Example 64, 1-(4,4-difluoro-1-methylpyrrolidin-3-yl)-2-(3-fluorocyclopentyl)-1H-imidazo[4,5-c]quinoline-8-carbonitrile], with 2300 nM.
